Results published in patent publication US6632621B1, “G protein-coupled receptor-like receptors and modulators thereof” (priority 1999, dated 2003).
Read-outs that look alike come from different tables or passages of the source. Where no end group is shown, it is not given here. [ ]: non-standard residue; d: D form. Tyr(3-I) = N[C@@H](Cc1ccc(O)c(I)c1)C(=O)O

Columns and labels:
CEGPCR5 = molecular target: T1, CEGPCR5 (Caenorhabditis elegans, UniProt Q18179); experiment: [35S]GTPγS binding assay, CEGPCR5 expressed in CHO cells; format: biochemical, C. elegans
T1 sequence (Q18179 1-402): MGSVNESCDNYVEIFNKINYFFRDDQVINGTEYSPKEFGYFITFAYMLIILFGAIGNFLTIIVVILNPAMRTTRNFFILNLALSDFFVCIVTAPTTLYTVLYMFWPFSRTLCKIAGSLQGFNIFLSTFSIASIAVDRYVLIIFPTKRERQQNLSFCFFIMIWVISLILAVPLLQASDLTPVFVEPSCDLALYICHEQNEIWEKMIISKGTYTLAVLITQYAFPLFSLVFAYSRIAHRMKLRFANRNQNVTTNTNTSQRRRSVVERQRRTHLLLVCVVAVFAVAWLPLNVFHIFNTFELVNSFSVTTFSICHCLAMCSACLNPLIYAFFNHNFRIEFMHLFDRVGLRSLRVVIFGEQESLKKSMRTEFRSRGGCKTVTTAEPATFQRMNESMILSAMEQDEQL
Experimental: (§1) Recombinant pCR3.1 clones encoding invertebrate GPCR-like receptors were transformed into wild-type CHO-K1 cells and functional expression was achieved using a temperature-shift incubation protocol. The CHO-K1 cells were cultured at 37° C. in a humidified atmosphere of 5% CO2 in air in DMEM medium supplemented with 10% heat-inactivated fetal bovine serum (i.e., FBS), 10 μg/ml gentamicin, and 0.1 mM nonessential amino acids to give complete DMEM medium. Additionally, for incubations at temperatures lower than 37° C., the medium was fortified with 10 mM HEPES (pH 7.4). Cells were transfected with recombinant pCR3.1 clones containing GPCR-like receptor DNAs, using LipofectAMINE PLUS™, essentially according to the manufacturer's instructions. […] In separate plastic tubes, PLUS (20 μl/plate; Life Technologies) was added to 0.75 ml/plate of recombinant plasmid DNA in OptiMEM (5 μg/plate; Gibco/BRL—Life Technologies), mixed and incubated at room temperature for 15 minutes. Separately, LipofectAMINE (30 μl/plate) was mixed with 0.75 ml OptiMEM and added to the pre-complexed DNA/PLUS mixture and incubated at room temperature for 15 minutes. The culture medium was then replaced with serum-free transfection medium (DMEM, 5 ml/plate). The DNA-PLUS-LipofectAMINE complex was then added to the plates (1.5 ml/plate) and mixed gently into the medium, followed by a 3 hour incubation at 37° C. in 5% CO2. At this time, the medium was supplemented with complete DMEM medium containing 20% FBS (6.5 ml/plate) and incubation was continued at 37° C. in 5% CO2. After a total of 24 hours at 37° C. in 5% CO2, the medium was replaced with complete DMEM medium fortified with 10 mM HEPES (10 ml/plate) and the cells were moved to an incubator maintained at 28-30° C. in a humidified atmosphere of 5% CO2 in air. The incubation continued for an additional 24 hours, typically at the lower temperature indicated above. A plasmid encoding Green Fluorescent Protein (i.e., GFP, 4 μg/plate) was used for transient GFP expression in CHO-K1 cells to estimate the transfection yields under the same conditions as used for GPCR-like receptor polynucleotides.
(§2) To assess expression, membranes were prepared from transfected CHO-K1 cells. Transfected cells were washed once with ice-cold Dulbecco's phosphate-buffered saline (i.e., PBS), 5 ml per 10 cm plate, and the cells were scraped into 5 ml of the same buffer. Cell suspensions from multiple plates were combined and centrifuged at 500×g for 10 minutes at 4° C. The cell pellet was reconstituted in ice-cold TEE (25 mM Tris, pH 7.4, 5 mM EGTA, 5 mM EDTA). Convenient aliquots were snap-frozen in liquid nitrogen and stored at −70° C. After thawing, the cells were homogenized and centrifuged at 500×g for 5 minutes at 4° C. to pellet nuclei and unbroken cells. Tile supernatant was centrifuged at 47,000×g for 30 minutes at 4° C. The membrane pellet was washed once with TEE, resuspended in 20 mM HEPES, pH 7.4, 100 mM NaCl, 10 mM MgCl2, 1 mM EDTA (assay buffer), distributed into aliquots of 0.5-1.0 ml, and frozen in liquid nitrogen. Membrane aliquots were stored at −70° C. Membrane protein concentration was determined using the BCA Protein Assay Reagent from Pierce (Rockford, Ill.), with bovine serum albumin (i.e., BSA) as a standard.
(§3) Aliquots of cell membranes prepared as described above and stored at −70° C. were thawed, homogenized, and diluted into buffer containing 20 mM HEPES, pH 7.4, 10 mM MgCl2, 1 mM EDTA, and 100 mM NaCl at a concentration of 10-50 μg/ml. Reaction mixtures were prepared in 96-well polypropylene plate, Nunc. Twenty microliters of a 10× putative modulator compound (including but not limited to potential peptide ligands) solution or a water control (20 μl), 18.2 µM GDP (0.11 ml, 10 μM final concentration), and a membrane preparation were mixed and placed on ice. The modulator/ligand-GDP-membrane mixtures were incubated for 20 minutes at room temperature on a shaking platform and then placed on ice.

CEGPCR12h receptor = molecular target: T2, CEGPCR12h receptor (Caenorhabditis elegans, UniProt Q20275); experiment: [35S]GTPγS binding assay, CEGPCR12h expressed in CHO cells; format: biochemical, C. elegans; details: Table 11; for activity at single concentration: peptides tested at 5 μM
T2 sequence (Q20275 1-402): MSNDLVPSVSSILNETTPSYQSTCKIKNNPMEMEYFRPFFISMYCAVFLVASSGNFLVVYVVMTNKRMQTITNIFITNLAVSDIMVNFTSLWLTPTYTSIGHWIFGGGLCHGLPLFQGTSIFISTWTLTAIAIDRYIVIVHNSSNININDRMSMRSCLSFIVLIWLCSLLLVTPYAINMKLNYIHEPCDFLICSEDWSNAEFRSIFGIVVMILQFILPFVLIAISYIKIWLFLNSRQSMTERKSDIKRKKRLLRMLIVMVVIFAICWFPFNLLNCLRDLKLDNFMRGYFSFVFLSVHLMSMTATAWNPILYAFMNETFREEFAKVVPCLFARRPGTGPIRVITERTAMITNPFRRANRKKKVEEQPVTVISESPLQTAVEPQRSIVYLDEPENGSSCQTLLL
Experimental: as §1, §2, §3

CEGPCR16 receptor = molecular target: T3, CEGPCR16 receptor (Caenorhabditis elegans, UniProt Q9XXU4); experiment: [35S]GTPγS binding assay, CEGPCR16 expressed in CHO cells; format: biochemical, C. elegans
T3 sequence (Q9XXU4 1-365): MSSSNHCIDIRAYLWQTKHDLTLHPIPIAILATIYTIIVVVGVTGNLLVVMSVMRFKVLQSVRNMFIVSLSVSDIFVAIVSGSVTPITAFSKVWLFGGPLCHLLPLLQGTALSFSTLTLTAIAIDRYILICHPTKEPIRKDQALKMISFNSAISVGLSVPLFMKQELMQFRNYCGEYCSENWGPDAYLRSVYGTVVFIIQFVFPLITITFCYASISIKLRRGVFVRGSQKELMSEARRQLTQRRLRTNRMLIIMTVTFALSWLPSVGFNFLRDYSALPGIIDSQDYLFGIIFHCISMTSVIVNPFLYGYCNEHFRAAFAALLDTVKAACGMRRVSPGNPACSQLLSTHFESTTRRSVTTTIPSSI
Experimental: as §1, §2, §3

CEGPCR4 = molecular target: T4, CEGPCR4 (C. elegans); experiment: competition binding assay, CEGPCR4/CHO membranes; IC50 range printed once for block r39-r54
T4 construct: Expressed in CHO cells; also called CEGPCR4 receptor; CEGPCR4/CHO membranes
T4 chain: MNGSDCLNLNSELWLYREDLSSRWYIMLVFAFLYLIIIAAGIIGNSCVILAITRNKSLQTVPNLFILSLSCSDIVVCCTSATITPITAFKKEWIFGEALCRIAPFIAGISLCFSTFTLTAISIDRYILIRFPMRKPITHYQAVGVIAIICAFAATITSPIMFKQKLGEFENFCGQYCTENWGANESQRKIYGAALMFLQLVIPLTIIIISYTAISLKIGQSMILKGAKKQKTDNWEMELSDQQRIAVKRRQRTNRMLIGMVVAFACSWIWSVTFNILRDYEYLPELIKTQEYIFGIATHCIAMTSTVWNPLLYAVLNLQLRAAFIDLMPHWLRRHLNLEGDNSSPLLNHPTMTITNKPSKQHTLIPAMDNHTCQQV

[1] = EC50 range, Table 9, one range for the group of peptides
[2] = Table 10, one range for the group of peptides, read-out: EC50 range

Question: Which EC50 (CEGPCR5; [1]) does the source give for KPNFLRY-NH2 [KPNFLRY-NH2] here?
Answer: Its EC50 is 1000 to 8000 nM.

Question: What does the source list for KSVPGVLRF-NH2 [KSVPGVLRF-NH2]?
Answer: EC50 (CEGPCR5): 1000 to 8000 nM; activity at single concentration (CEGPCR12h receptor): active at; EC50 (CEGPCR16 receptor; [2]): 700 to 4600 nM

Question: For SADDSAPFGTMRF-NH2 [SADDSAPFGTMRF-NH2], which EC50 (CEGPCR16 receptor; [2]) is on record?
Answer: The EC50 was 60 to 300 nM.

Question: How did the EC50 (CEGPCR16 receptor; [2]) turn out when SAEPFGTMRF-NH2 [SAEPFGTMRF-NH2] was run?
Answer: The EC50 was 60 to 300 nM.

Question: For SDRNFLRF-NH2 [SDRNFLRF-NH2], which EC50 (CEGPCR5; [1]) is on record?
Answer: The EC50 was 80 to 800 nM.

Question: Which EC50 (CEGPCR16 receptor; [2]) does the source give for SEVPGVLRF-NH2 [SEVPGVLRF-NH2] here?
Answer: Its EC50 is 700 to 4600 nM.

Question: For SPLGTMRF-NH2 [SPLGTMRF-NH2], which EC50 (CEGPCR16 receptor; [2]) is on record?
Answer: The EC50 was 60 to 300 nM.

Question: Which results are given for SVPGVLRF-NH2 [SVPGVLRF-NH2]?
Answer: EC50 (CEGPCR5): 80 to 800 nM; activity at single concentration (CEGPCR12h receptor): active at; EC50 (CEGPCR16 receptor; [2]): 60 to 300 nM; EC50 (CEGPCR16 receptor; read-out: EC50): 64 nM

Question: How did the EC50 (CEGPCR12h receptor; EC50 range, one range for the group, results apply to all CEGPCR12 isoforms) turn out when TDVDHVFLRF-NH2 [TDVDHVFLRF-NH2] was run?
Answer: The EC50 was 1500 to 3000 nM.

Question: How did the EC50 (CEGPCR5; [1]) turn out when TNRNFLRF-NH2 [TNRNFLRF-NH2] was run?
Answer: The EC50 was 80 to 800 nM.

Question: YGLGPRPLRF-NH2 [YGLGPRPLRF-NH2] was tested. Which EC50 (CEGPCR5; [1]) did it give?
Answer: Its EC50 is 80 to 800 nM.

Question: Does GVLRF-NH2 (synthetic) [GVLRF-NH2] bind (CEGPCR4)?
Answer: Result: binds

Question: Does YGVLRF-NH2 (synthetic) [Y-GVLRF-NH2] bind (CEGPCR4)?
Answer: Result: binds

Question: Does PGVLRF-NH2 (synthetic) [PGVLRF-NH2] bind (CEGPCR4)?
Answer: Result: binds

Question: Does Ac-VPGVLRF-NH2 (synthetic) [Ac-VPGVLRF-NH2] bind (CEGPCR4)?
Answer: Result: binds

Question: Does VPGVLRF-NH2 (synthetic) [VPGVLRF-NH2] bind (CEGPCR4)?
Answer: Result: binds

Question: Does YPGVLRF-NH2 (synthetic) [Y-PGVLRF-NH2] bind (CEGPCR4)?
Answer: Result: binds

B1: 3-Iodo-Y-PGVLRF-NH2 (peptide)
peptide: [Tyr(3-I)]PGVLRF-NH2
modifications: N-terminus assumed
SMILES: CC(C)C[C@H](NC(=O)[C@@H](NC(=O)CNC(=O)[C@@H]1CCCN1C(=O)[C@@H](N)Cc1ccc(O)c(I)c1)C(C)C)C(=O)N[C@@H](CCCNC(=N)N)C(=O)N[C@@H](Cc1ccccc1)C(N)=O
notes: synthetic
Question: Does B1 bind (CEGPCR4)?
Answer: Result: binds

Question: Does Ac-GVLRF-NH2 (synthetic) [Ac-GVLRF-NH2] bind (CEGPCR4)?
Answer: Result: binds
